Measurements as given in patent US11471448B2 (priority 2020, dated 2022).
Where a name gives a salt, the structure may show the parent alone.

Columns and labels:
[1] = system: patients with COVID-19 pneumonia; assay: Pilot study / compassionate use of opaganib in hospitalized COVID-19 pneumonia patients; assay type: in vivo, human
From the text: Return to room air or a specific SpO2 oxygen saturation on room air. Assessment of on-treatment viral load changes, and changes in D-dimer, cardiac troponin, LDH and ferritin levels. Study Design:
Patients entered a screening period of up to 1 week. Eligible patients entered the treatment period for up to 2 weeks. All participants were followed for 2 weeks after their last dose of study drug, at the end of the 2 week treatment period, or once they had 2 consecutive daily negative viral swabs for the COVID-19 virus or at after premature drug discontinuation prior to Day 14. The maximum duration of study participation was 35 days […].
• 1. Adult male or female≥18 to ≤75 years of age, inclusive • 2. Proven COVID-19 infection and pneumonia not requiring mechanical ventilation or mechanically ventilated for no more than 24 hours at time of informed consent • 3. The patient, guardian or legally acceptable representative has signed a written IRB-approved informed consent. Key Exclusion Criteria: • 1. New York Heart Association Class III or IV, cardiac disease, myocardial infarction within the past 6 months, unstable arrhythmia, or evidence of ischemia on ECG • 2. Any co-morbidity that may add risk to the treatment in the judgement of the investigator. • 3. Pregnant (positive serum test) or nursing women • 4. Unwillingness or inability to comply with procedures required in this protocol. • 5. AST (SGOT) or ALT (SGPT)>2.5× upper limit of normal (ULN) • 6. Bilirubin>1.5×ULN (except where bilirubin increase is due to Gilbert's Syndrome) • 7. Serum creatinine>2.0×ULN • 8. Absolute neutrophil count<1000 cells/mm^3 • 9. Platelet count<75,000/mm^3 • 10. Hemoglobin<8.0 g/dL • 11. Currently taking warfarin, apixaban, argatroban or rivaroxaban • 12. Current drug or alcohol abuse Study Assessments: The following will be monitored daily (see Table 3): • Review of concomitant medications • Adverse Events • Physical exam • Vital signs (temperature, blood pressure, pulse rate, respiratory rate and oxygen saturation by pulse oximeter) • Clinical symptoms (cough, dyspnea, nausea, vomiting, diarrhea) • Nasopharyngeal viral swab • Serum chemistry • CBC with differential • Chest X-ray • Urinalysis
Each dose is administered with food or 15-30 minutes after tube-feeding, where appropriate.
These patients had moderate to severe COVID-19-related pneumonia with hypoxia on supplemental oxygen.
Five patients were included in the analysis, and for comparison purposes, we used a control group with same-sex, same-severity patients (baseline characteristics). Univariate comparisons between the groups were performed with chi-square test for categorical variables and t-test or MannWhitney U-test for continuous variables, as appropriate. Time variables were compared with Cox proportional hazard regression, adjusted for age and background illnesses. CRP and lymphocyte changes were compared utilizing a repeated measures general linear model with a Bonferroni correction for multiple comparison.

[2] = system: patients with COVID-19 pneumonia; assay: Randomized, double-blind, placebo-controlled Phase 2a study of opaganib in COVID-19 pneumonia; assay type: in vivo, human
From the text: This was a phase 2a, proof of concept, multi-center randomized double-blind, parallel arm, placebo-controlled study. After informed consent was obtained, patients entered a screening phase for no more than 3 days, to determine eligibility. […] Treatment assignments remained blinded to the patient, investigator and hospital staff, as well as the sponsor. As there was no consensus for a definitive treatment specifically targeting the SARS-CoV-2 virus causing COVID-19 (Wilson, 2020), standard of care referred to regional, institutional or physician directed therapies, that were implemented during the COVID-19 pandemic.
Study drug was to be administered every day for 14 days (Day 1 to Day 14), unless the patient had been discharged from the hospital without requiring supplemental oxygen, in which case study drug would only be administered to Day 10.
All participants were followed up for 4 weeks after their last dose of study drug, which may have occurred at the end of the 2-week double-blind treatment phase or after premature study drug discontinuation, based upon patient or physician determination. The maximum duration of study participation was up to 45 days (including up to 3 days screening; 2 weeks DB treatment phase and 4-weeks off-study drug follow-up)
• 1. Adult male or female≥18 to ≤80 years of age • 2. Proven COVID-19 infection per RT-PCR assay of a pharyngeal sample (nasopharyngeal or oropharyngeal) AND pneumonia defined as radiographic opacities on chest X-ray • 3. The patient requires supplemental oxygen at baseline • 4. The patient, guardian or legal representative has signed a written IRB-approved informed consent Exclusion: • 1. Any co-morbidity that may add risk to the treatment in the judgement of the investigator. • 2. Requiring intubation and mechanical ventilation • 3. Oxygen saturation≥95% on room air • 4. Any preexisting respiratory condition that requires intermittent or continuous ambulatory oxygen prior to hospitalization • 5. Patient is, in the investigator's clinical judgement, unlikely to survive >72 hours • 6. Pregnant (positive serum test within 3 days prior to randomization) or nursing women • 7. Unwillingness or inability to comply with procedures required in this protocol. • 8. Corrected QT (QTc) interval on electrocardiogram (ECG) >470 ms for females or >450 ms for males, calculated using Friedericia's formula (QTcF) • 9. AST (SGOT) or ALT (SGPT) >2.5× upper limit of normal (ULN) • 10. Bilirubin>1.5×ULN (except where bilirubin increase is due to Gilbert's Syndrome) • 11. Serum creatinine>2.0×ULN • 12. Absolute neutrophil count<1000 cells/mm^3 • 13. Platelet count<75,000/mm^3 • 14. Hemoglobin<8.0 g/dL • 15. Currently taking medications that are sensitive CYP3A4, CYP2C9 or CYP2C19 substrates and have a narrow therapeutic index • 16. Currently taking medications that are strong inducers or inhibitors of CYP2D6 and CYP3A4 • 17. Currently taking warfarin, apixaban, argatroban or rivaroxaban • 18. Current drug or alcohol abuse • 19. Currently participating in a clinical study assessing pharmacological treatments, including anti-viral studies Number of Subjects: […]

[3] = of 6 moderate-to-severe patients

Structure (SMILES): O=C(NCc1ccncc1)C12CC3CC(C1)CC(c1ccc(Cl)cc1)(C3)C2 [opaganib, 3-(4-chlorophenyl)-adamantane-1-carboxylic acid (pyridin-4-ylmethyl) amide, hydrochloride salt]
- HR, time to weaning from HFNC, cases vs. controls ([1]; 95% CI: 0.07-1.7, p=0.2, Cox regression adjusted for age and background illnesses): 0.3
- HR, time to ambient air, cases vs. controls ([1]; 95% CI: 0.15-1.5): 0.4
- Lymphocytes, most recent ([1]; Patient 1 (14 d), baseline 1.6, 17 Apr. 2020): 2.8 (17 Apr. 2020) 10^3/mm^3
- CRP, most recent ([1]; Patient 1 (14 d), baseline 15.1, 17 Apr. 2020): 1 (17 Apr. 2020) mg/L
- Clinical Assessment ([1]; Patient 1 (14 d on opaganib), started severe on maximal OptiFlow 3 Apr. 2020): 3 Apr. 2020; RA by 16/4. As of 22/4, one negative
- Lymphocytes, most recent ([1]; Patient 2 (14 d), baseline 1.1, 17 Apr. 2020): 2.1 (17 Apr. 2020) 10^3/mm^3
- CRP, most recent ([1]; Patient 2 (14 d), baseline 14.2, 17 Apr. 2020): 4.8 (17 Apr. 2020) mg/L
- Clinical Assessment ([1]; Patient 2 (14 d), started severe+, planning for intubation 7 Apr. 2020): 7 Apr. 2020; RA by 20 Apr. 4 2020, D/C on
- Lymphocytes, most recent ([1]; Patient 3 (7 d), baseline 0.9, 17 Apr. 2020): 1.2 (17 Apr. 2020) 10^3/mm^3
- CRP, most recent ([1]; Patient 3 (7 d), baseline 10.7, 17 Apr. 2020): 1.7 (17 Apr. 2020) mg/L
- Clinical Assessment ([1]; Patient 3 (7 d), moderate-severe, on OptiFlow 13 Apr. 2020, RA by 17 Apr. 2020): 17 Apr. 2020, D/C on 19 Apr. 2020
- Lymphocytes, most recent ([1]; Patient 4 (11 d), baseline 1.2, 22 Apr. 2020): 1 (22 Apr. 2020) 10^3/mm^3
- CRP, most recent ([1]; Patient 4 (11 d), baseline 24.8, 22 Apr. 2020): 17.4 (22 Apr. 2020) mg/L
- Clinical Assessment ([1]; Patient 4 (11 d), started severe+ 70% OptiFlow on 13 Apr. 2020): RA on 22 Apr. 2020
- Clinical Assessment ([1]; Patient 5 (2 d), started moderate on 13 Apr. 2020, nasal cannula, D/C on 14 Apr. 2020 on RA): Dramatic improvement after one day on
- Lymphocytes, most recent ([1]; Patient 6 (5 d), baseline 1.35, 24 Apr. 2020): 1.96 (24 Apr. 2020) 10^3/mm^3
- CRP, most recent ([1]; Patient 6 (5 d), baseline 12.2, 24 Apr. 2020): 6.8 (24 Apr. 2020) mg/L
- adverse event leading to discontinuation ([1]; Patient 7 (1 d), also on HCQ and azithromycin, may or may not be related to opaganib): opaganib started. Diarrhea the next day, all 3 meds were stopped, followed by worsening SOB, on 75% OptiFlow.
- C-Reactive Protein (CRP) ([1]; all six patients): reduction
- clinical improvement, including reduced supplemental oxygenation and higher lymphocyte counts ([1]; all six patients): measurable clinical improvement
- median time to weaning from high-flow nasal cannula (HFNC) ([1]; cases, controls 15 days): 10 days
- cases requiring mechanical ventilation ([1]; compared with 33% of controls): none
- lymphocyte count change vs. matched controls ([1]; five patients vs. same-sex, same-severity control group): significantly faster increase
- patients back to breathing room air [1, 3]: 5 patients
- patients discharged from hospital [1, 3]: 3 patients
- moderate to-severe patients improved significantly ([1]; of 6 patients treated (patient #7 excepted), opaganib plus standard-of-care): 6 patients
- patients with serious adverse events (SAEs) vs. placebo arm ([2]; 500 mg Q12 hours up to 14 days): fewer patients
- safety ([2]; 500 mg Q12 hours up to 14 days plus standard of care, vs. placebo): safe
- reduction from baseline of the medial total oxygen requirement (AUC) over 14 days ([2]; control arm 46.7%): 68.0%
- proportion of patients discharged by Day 14 ([2]; control arm 55.6%): 73.7%
- proportion of patients reaching room air and no longer requiring oxygen support by Day 14 ([2]; mITT sensitivity, control arm 22.2%): 52.6%
- proportion of patients with 50% reduction in supplemental oxygen by day 14 ([2]; mITT sensitivity, control arm 66.7%): 89.5%
- patients with adverse events such that study drug was terminated ([2]; opaganib arm, one patient in placebo arm): Two
